Values after ≈ are worked out from the molar mass of the structure shown.

27 compounds from ChEMBL document CHEMBL1146065, “Structure-based optimization of azole antifungal agents by CoMFA, CoMSIA, and molecular docking” (2006) can be followed below.

Common to all, as to type: functional
The subject of one test is Candida albicans. In words: Antifungal activity against Candida albicans.
The subject of another test is Candida tropicalis. In words: Antifungal activity against Candida tropicalis.
A further test has as its system Candida parapsilosis. In words: Antifungal activity against Candida parapsilosis. To be noted: Lodderomyces parapsilosis.
The next test has as its system Cryptococcus neoformans. In words: Antifungal activity against Cryptococcus neoformans.
The next test has as its system Fonsecaea pedrosoi. In words: Antifungal activity against Fonsecaea pedrosoi.
For the next test, the system named is Trichophyton rubrum. In words: Antifungal activity against Trichophyton rubrum.
A further test relates to Aspergillus fumigatus. In words: Antifungal activity against Aspergillus fumigatus.
Another test relates to Sporothrix schenckii. In words: Antifungal activity against Sporothrix schenckii.

In the test on Candida albicans, `OC(CN1CCN(c2cccc(C(F)(F)F)c2)CC1)(Cn1cncn1)c1ccc(F)cc1F` (configuration not stated) gave an MIC80 of 0.032 µM.

Turning to `O=C(c1ccccc1)N1CCN(CC(O)(Cn2cncn2)c2ccc(F)cc2F)CC1` (configuration not stated), the MIC80 in the test with Candida albicans is 2.34 µM.

The compound `OC(CN1CCN(Cc2cc(F)ccc2Br)CC1)(Cn1cncn1)c1ccc(F)cc1F` (configuration not stated) returned an MIC80 against Candida albicans of 0.122 µM.

`Cc1ccccc1C(=O)N1CCN(CC(O)(Cn2cncn2)c2ccc(F)cc2F)CC1` (configuration not stated) registered an MIC80 in the test on Candida albicans of 36.2 µM.

Turning to `CN(Cc1ccc(N)cc1)CC(O)(Cn1cncn1)c1ccc(F)cc1F` (configuration not stated), the MIC80 stood at 0.5 µg/mL (≈ 1.34 µM) in the test on Candida tropicalis; 2 µg/mL (≈ 5.36 µM) against Candida parapsilosis; 0.0625 µg/mL in the test with Candida albicans; 8 µg/mL (≈ 21.4 µM) with Cryptococcus neoformans; 4 µg/mL (≈ 10.7 µM) against Fonsecaea pedrosoi; 16 µg/mL (≈ 42.8 µM) with Trichophyton rubrum. Besides, the MIC80 with Aspergillus fumigatus and in the test with Sporothrix schenckii was 64 µg/mL (≈ 171 µM) throughout.

Turning to `O=C(c1ccccc1Cl)N1CCN(CC(O)(Cn2cncn2)c2ccc(F)cc2F)CC1` (configuration not stated), in the test on Candida albicans, the MIC80 turned out to be 2.16 µM.

For `OC(CN1CCN(Cc2cccc(Cl)c2)CC1)(Cn1cncn1)c1ccc(F)cc1F` (configuration not stated), the MIC80 in the test with Candida albicans was determined as 0.14 µM.

Take `Cc1ccc(C(=O)Cn2ncn(-c3ccc(CN(C)CC(O)(Cn4cncn4)c4ccc(F)cc4F)cc3)c2=O)c(Cl)c1` (configuration not stated): the MIC80 against Candida tropicalis is 0.0625 µg/mL (≈ 0.103 µM); with Candida parapsilosis, 0.5 µg/mL (≈ 0.822 µM); with Candida albicans, 0.125 µg/mL; in the test with Cryptococcus neoformans it was 64 µg/mL (≈ 105 µM); in the test on Fonsecaea pedrosoi, 1 µg/mL (≈ 1.64 µM); in the test on Trichophyton rubrum, 64 µg/mL (≈ 105 µM). In addition, the figures for the MIC80 against Aspergillus fumigatus and in the test with Sporothrix schenckii were 32 µg/mL (≈ 52.6 µM) and 64 µg/mL (≈ 105 µM), respectively.

On to `OC(CN1CCN(Cc2ccc(F)cc2)CC1)(Cn1cncn1)c1ccc(F)cc1F` (configuration not stated), for which the MIC80 against Candida albicans was 0.579 µM.

Turning to `O=C(c1ccc([N+](=O)[O-])cc1)N1CCN(CC(O)(Cn2cncn2)c2ccc(F)cc2F)CC1` (configuration not stated), the MIC80 against Candida albicans came to 1.06 µM.

For the compound `CC(C)c1ccc(C(=O)Cn2ncn(-c3ccc(CN(C)CC(O)(Cn4cncn4)c4ccc(F)cc4F)cc3)c2=O)cc1` (configuration not stated), the MIC80 with Candida tropicalis came out at 0.125 µg/mL (≈ 0.208 µM); in the test on Candida parapsilosis, 0.06 µg/mL (≈ 0.0997 µM); in the test with Candida albicans it was 0.004 µg/mL; in the test with Cryptococcus neoformans it was 1 µg/mL (≈ 1.66 µM); with Fonsecaea pedrosoi, 0.125 µg/mL (≈ 0.208 µM); against Trichophyton rubrum it was 1 µg/mL (≈ 1.66 µM). In addition, the MIC80 was determined as 32 µg/mL (≈ 53.2 µM) in the test on Aspergillus fumigatus and 64 µg/mL (≈ 106 µM) in the test with Sporothrix schenckii.

The compound `CC(=O)c1ccc(N2CCN(CC(O)(Cn3cncn3)c3ccc(F)cc3F)CC2)cc1` (configuration not stated) displayed an MIC80 with Candida albicans of 0.0339 µM.

On to `OC(CN1CCN(Cc2ccc(Cl)cc2Cl)CC1)(Cn1cncn1)c1ccc(F)cc1F` (configuration not stated), for which the MIC80 against Candida albicans is 0.0331 µM.

On to `CN(Cc1ccc(-n2cnn(CC(=O)c3ccc(F)cc3)c2=O)cc1)CC(O)(Cn1cncn1)c1ccc(F)cc1F` (configuration not stated), for which the MIC80 was 0.0625 µg/mL (≈ 0.108 µM) in the test with Candida tropicalis; 0.06 µg/mL (≈ 0.104 µM) with Candida parapsilosis; 0.004 µg/mL in the test with Candida albicans; 1 µg/mL (≈ 1.73 µM) against Cryptococcus neoformans; 0.0625 µg/mL (≈ 0.108 µM) against Fonsecaea pedrosoi; 2 µg/mL (≈ 3.46 µM) in the test on Trichophyton rubrum. Moreover, the MIC80 against Aspergillus fumigatus and against Sporothrix schenckii was 64 µg/mL (≈ 111 µM) each time.

On to `OC(CN1CCN(Cc2ccccc2Cl)CC1)(Cn1cncn1)c1ccc(F)cc1F` (configuration not stated), for which, in the test with Candida albicans, the MIC80 is 0.558 µM.

On to `O=C(c1cccc([N+](=O)[O-])c1)N1CCN(CC(O)(Cn2cncn2)c2ccc(F)cc2F)CC1` (configuration not stated), for which the MIC80 against Candida albicans is 16.9 µM.

In the case of `CN(Cc1ccccc1[N+](=O)[O-])CC(O)(Cn1cncn1)c1ccc(F)cc1F` (configuration not stated), the MIC80 in the test with Candida tropicalis was 0.25 µg/mL (≈ 0.62 µM); in the test on Candida parapsilosis it was 2 µg/mL (≈ 4.96 µM); with Candida albicans, 2 µg/mL; against Cryptococcus neoformans, 0.25 µg/mL (≈ 0.62 µM); in the test on Fonsecaea pedrosoi, 1 µg/mL (≈ 2.48 µM); with Trichophyton rubrum it was 0.25 µg/mL (≈ 0.62 µM). The MIC80 turned out to be 4 µg/mL (≈ 9.92 µM) in the test on Aspergillus fumigatus and 64 µg/mL (≈ 159 µM) in the test with Sporothrix schenckii.

For `O=C(c1ccc(F)cc1)N1CCN(CC(O)(Cn2cncn2)c2ccc(F)cc2F)CC1` (configuration not stated), the MIC80 against Candida albicans worked out at 2.23 µM.

For `N#Cc1ccc(N2CCN(CC(O)(Cn3cncn3)c3ccc(F)cc3F)CC2)cc1` (configuration not stated), the MIC80 against Candida albicans amounted to 0.0324 µM.

For the compound `CC(C)(C)c1ccc(C(=O)N2CCN(CC(O)(Cn3cncn3)c3ccc(F)cc3F)CC2)cc1` (configuration not stated), the MIC80 against Candida albicans was 1.03 µM.

Compound `Cc1ccc(C(=O)N2CCN(CC(O)(Cn3cncn3)c3ccc(F)cc3F)CC2)cc1` (configuration not stated) had an MIC80 against Candida albicans of 18.1 µM.

As for `CN(Cc1ccc(C(F)(F)F)cc1)CC(O)(Cn1cncn1)c1ccc(F)cc1F` (configuration not stated), the MIC80 worked out at 1 µg/mL (≈ 2.35 µM) in the test on Candida tropicalis; 2 µg/mL (≈ 4.69 µM) against Candida parapsilosis; 0.031 µg/mL against Candida albicans; 0.25 µg/mL (≈ 0.586 µM) in the test with Cryptococcus neoformans; 0.125 µg/mL (≈ 0.293 µM) against Fonsecaea pedrosoi; 0.5 µg/mL (≈ 1.17 µM) against Trichophyton rubrum. Also, the MIC80 was 8 µg/mL (≈ 18.8 µM) with Aspergillus fumigatus and 64 µg/mL (≈ 150 µM) in the test on Sporothrix schenckii.

Consider `COc1ccc(C(=O)Cn2ncn(-c3ccc(CN(C)CC(O)(Cn4cncn4)c4ccc(F)cc4F)cc3)c2=O)cc1` (configuration not stated), for which the MIC80 worked out at 0.125 µg/mL (≈ 0.212 µM) in the test on Candida tropicalis; 0.03 µg/mL (≈ 0.0509 µM) with Candida parapsilosis; 0.016 µg/mL in the test with Candida albicans; 8 µg/mL (≈ 13.6 µM) in the test on Cryptococcus neoformans; 1 µg/mL (≈ 1.7 µM) against Fonsecaea pedrosoi; 4 µg/mL (≈ 6.78 µM) against Trichophyton rubrum. Moreover, the MIC80 in the test on Aspergillus fumigatus was determined as 32 µg/mL (≈ 54.3 µM); with Sporothrix schenckii it was 64 µg/mL (≈ 109 µM).

`OC(CN1CCN(Cc2ccc(F)cc2Br)CC1)(Cn1cncn1)c1ccc(F)cc1F` (configuration not stated) displayed an MIC80 in the test with Candida albicans of 0.122 µM.

The compound `OC(CN1CCN(Cc2cccc(I)c2)CC1)(Cn1cncn1)c1ccc(F)cc1F` (configuration not stated) returned an MIC80 against Candida albicans of 0.232 µM.

On to `COc1ccc(C(=O)N2CCN(CC(O)(Cn3cncn3)c3ccc(F)cc3F)CC2)cc1` (configuration not stated), for which the MIC80 with Candida albicans was determined as 0.273 µM.

For `CCC(C)n1ncn(-c2ccc(N3CCN(c4ccc(OCC5COC(Cn6cncn6)(c6ccc(Cl)cc6Cl)O5)cc4)CC3)cc2)c1=O` (configuration not stated) [ITRACONAZOLE], the MIC80 was 0.125 µg/mL (≈ 0.177 µM) in the test with Candida tropicalis; 0.25 µg/mL (≈ 0.354 µM) in the test with Candida parapsilosis; 0.125 µg/mL with Candida albicans; 2 µg/mL (≈ 2.83 µM) in the test on Cryptococcus neoformans; 0.5 µg/mL (≈ 0.709 µM) with Fonsecaea pedrosoi; 1 µg/mL (≈ 1.42 µM) in the test on Trichophyton rubrum. Also, the MIC80 against Aspergillus fumigatus stood at 1 µg/mL (≈ 1.42 µM).
